Measurements published in patent US11912660B2, “S6K1 protein kinase inhibitors as cancer therapeutics” (Xavier University of Louisiana, priority 2020, dated 2024).
Where two headings read alike, the source gives them in different places.

Assays:
Test in all cases: SelectScreen kinase panel screening
Format in all cases: biochemical
RPS6KB1 (p70S6K) = RPS6KB1 (p70S6K) (Homo sapiens (Human), UniProt P23443); conditions: for inhibition at 10 µM: RPS6KB1 (p70S6K)
Source text: (§1) The complete list of the kinases given in Table 1 and their details can be found on the ThermoFisher website for Biochemical Kinase assays (thermofisher.com/us/en/home/industrial/pharma-biopharma/drug-discovery-development/target-and-lead-identification-and-validation/kinasebiology.html).
RJ1 was taken as the lead structure for the synthesis of several diamide and monoamide derivatives of 4,6-diaminoisoindolin-1,3-dione.

AURKB (Aurora B) = AURKB (Aurora B) (Homo sapiens (Human), UniProt Q96GD4)
Source text: as §1

CSF1R (FMS) = CSF1R (FMS) (Homo sapiens (Human), UniProt P07333)
Source text: as §1

NTRK1 (TRKA) = NTRK1 (TRKA) (Homo sapiens (Human), UniProt P04629)
Source text: as §1

SRC = SRC (Homo sapiens (Human), UniProt P12931)
Sequence of SRC (P12931 whole entry, looked up): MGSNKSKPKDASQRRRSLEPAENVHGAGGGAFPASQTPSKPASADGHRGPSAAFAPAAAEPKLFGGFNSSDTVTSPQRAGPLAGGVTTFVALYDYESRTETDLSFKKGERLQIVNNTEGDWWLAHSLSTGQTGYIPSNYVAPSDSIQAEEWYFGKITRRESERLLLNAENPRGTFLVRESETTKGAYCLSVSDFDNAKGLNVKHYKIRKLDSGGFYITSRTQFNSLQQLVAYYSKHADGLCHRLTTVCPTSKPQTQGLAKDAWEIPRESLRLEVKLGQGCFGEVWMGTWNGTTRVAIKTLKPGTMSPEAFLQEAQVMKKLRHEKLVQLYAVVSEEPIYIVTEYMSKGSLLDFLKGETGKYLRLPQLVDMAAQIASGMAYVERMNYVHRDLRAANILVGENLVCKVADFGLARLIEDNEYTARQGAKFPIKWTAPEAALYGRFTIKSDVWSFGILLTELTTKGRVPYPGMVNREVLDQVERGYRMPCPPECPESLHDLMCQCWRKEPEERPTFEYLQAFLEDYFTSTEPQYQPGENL
Source text: as §1

TYRO3 (RSE) = TYRO3 (RSE) (Homo sapiens (Human), UniProt Q06418)
Sequence of TYRO3 (RSE) (Q06418 41-890): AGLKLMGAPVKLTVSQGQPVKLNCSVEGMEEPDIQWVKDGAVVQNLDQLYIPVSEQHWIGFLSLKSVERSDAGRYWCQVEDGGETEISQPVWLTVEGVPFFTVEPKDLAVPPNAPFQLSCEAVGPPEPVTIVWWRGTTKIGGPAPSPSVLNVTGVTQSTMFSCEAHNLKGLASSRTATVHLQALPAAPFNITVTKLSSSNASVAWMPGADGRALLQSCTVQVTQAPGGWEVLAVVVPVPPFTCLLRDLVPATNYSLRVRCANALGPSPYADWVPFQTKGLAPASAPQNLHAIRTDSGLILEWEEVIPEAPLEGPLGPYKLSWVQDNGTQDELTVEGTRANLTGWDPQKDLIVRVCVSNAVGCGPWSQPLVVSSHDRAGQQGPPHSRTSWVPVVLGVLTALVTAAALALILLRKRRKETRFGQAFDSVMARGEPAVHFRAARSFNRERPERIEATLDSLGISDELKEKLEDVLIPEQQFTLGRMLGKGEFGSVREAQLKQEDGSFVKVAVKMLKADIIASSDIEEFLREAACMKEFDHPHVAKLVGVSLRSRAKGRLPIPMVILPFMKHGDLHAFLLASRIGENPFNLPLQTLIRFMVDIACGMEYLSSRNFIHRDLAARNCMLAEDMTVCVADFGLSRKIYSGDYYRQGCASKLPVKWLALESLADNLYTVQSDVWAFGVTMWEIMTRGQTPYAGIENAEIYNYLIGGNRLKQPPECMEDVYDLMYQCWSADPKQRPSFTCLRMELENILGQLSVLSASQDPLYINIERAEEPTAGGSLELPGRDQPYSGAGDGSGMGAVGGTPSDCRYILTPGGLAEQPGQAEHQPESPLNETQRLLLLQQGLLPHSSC
Source text: as §1

JAK1 = JAK1 (Homo sapiens (Human), UniProt P23458)
Source text: as §1

CHEK2 (CHK2) = CHEK2 (CHK2) (Homo sapiens (Human), UniProt O96017)
Source text: as §1

ERBB2 (HER2) = ERBB2 (HER2) (Homo sapiens (Human), UniProt P04626)
Source text: as §1

FER = FER (Homo sapiens (Human), UniProt P16591)
Sequence of FER (P16591 whole entry): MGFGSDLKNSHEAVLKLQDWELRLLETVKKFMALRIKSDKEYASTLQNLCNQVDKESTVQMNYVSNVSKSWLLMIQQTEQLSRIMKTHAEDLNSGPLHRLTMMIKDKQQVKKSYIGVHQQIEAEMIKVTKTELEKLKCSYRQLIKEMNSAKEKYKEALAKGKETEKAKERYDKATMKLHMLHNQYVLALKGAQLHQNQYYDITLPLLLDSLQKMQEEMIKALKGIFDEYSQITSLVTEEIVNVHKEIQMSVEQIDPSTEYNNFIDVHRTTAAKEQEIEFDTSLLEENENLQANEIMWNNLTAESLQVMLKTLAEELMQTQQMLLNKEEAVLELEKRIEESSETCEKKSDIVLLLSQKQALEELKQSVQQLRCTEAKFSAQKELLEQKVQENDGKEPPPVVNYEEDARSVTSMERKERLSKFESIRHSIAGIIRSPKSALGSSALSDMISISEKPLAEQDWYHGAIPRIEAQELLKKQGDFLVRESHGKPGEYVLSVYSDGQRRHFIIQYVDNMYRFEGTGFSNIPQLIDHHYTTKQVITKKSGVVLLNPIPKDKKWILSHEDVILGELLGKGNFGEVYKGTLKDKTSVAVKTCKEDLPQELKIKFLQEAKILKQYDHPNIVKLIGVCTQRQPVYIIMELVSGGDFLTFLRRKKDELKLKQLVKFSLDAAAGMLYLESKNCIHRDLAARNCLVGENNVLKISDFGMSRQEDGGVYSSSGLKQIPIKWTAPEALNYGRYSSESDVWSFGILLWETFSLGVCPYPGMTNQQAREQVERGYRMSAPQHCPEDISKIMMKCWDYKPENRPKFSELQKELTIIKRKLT
Source text: as §1

CSNK1E (CK1 epsilon) = CSNK1E (CK1 epsilon) (Homo sapiens (Human), UniProt P49674)
Source text: as §1

PLK3 = PLK3 (Homo sapiens (Human), UniProt Q9H4B4)
Source text: as §1

MATK (HYL) = MATK (HYL) (Homo sapiens (Human), UniProt P42679)
Source text: as §1

KIT = KIT (Homo sapiens (Human), UniProt P10721)
Source text: as §1

FES (FPS) = FES (FPS) (Homo sapiens (Human), UniProt P07332)
Source text: as §1

PLK1 = PLK1 (Homo sapiens (Human), UniProt P53350)
Sequence of PLK1 (P53350 whole entry): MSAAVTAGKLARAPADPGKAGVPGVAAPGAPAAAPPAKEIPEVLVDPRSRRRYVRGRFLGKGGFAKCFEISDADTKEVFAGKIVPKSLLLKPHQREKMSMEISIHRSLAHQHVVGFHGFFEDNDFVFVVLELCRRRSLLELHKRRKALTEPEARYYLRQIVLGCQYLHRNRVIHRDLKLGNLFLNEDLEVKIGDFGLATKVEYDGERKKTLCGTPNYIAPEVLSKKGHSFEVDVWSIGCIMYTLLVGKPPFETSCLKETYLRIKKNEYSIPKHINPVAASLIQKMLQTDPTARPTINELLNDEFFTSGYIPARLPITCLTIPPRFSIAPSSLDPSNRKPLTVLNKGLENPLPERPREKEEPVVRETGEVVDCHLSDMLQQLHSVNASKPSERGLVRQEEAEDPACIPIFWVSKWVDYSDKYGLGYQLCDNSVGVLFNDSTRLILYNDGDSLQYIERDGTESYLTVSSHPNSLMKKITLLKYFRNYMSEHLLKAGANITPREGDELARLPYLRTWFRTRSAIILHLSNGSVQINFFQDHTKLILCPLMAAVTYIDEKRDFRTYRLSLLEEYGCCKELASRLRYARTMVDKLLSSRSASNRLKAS
Source text: as §1

RAF1 (cRAF) Y340D Y341D = RAF1 (cRAF) Y340D Y341D (Homo sapiens (Human), UniProt P04049, Y340D/Y341D)
Source text: as §1

JAK3 = JAK3 (Homo sapiens (Human), UniProt P52333)
Source text: as §1

ERBB4 (HER4) = ERBB4 (HER4) (Homo sapiens (Human), UniProt Q15303)
Source text: as §1

BTK = BTK (Homo sapiens (Human), UniProt Q06187)
Sequence of BTK (Q06187 whole entry): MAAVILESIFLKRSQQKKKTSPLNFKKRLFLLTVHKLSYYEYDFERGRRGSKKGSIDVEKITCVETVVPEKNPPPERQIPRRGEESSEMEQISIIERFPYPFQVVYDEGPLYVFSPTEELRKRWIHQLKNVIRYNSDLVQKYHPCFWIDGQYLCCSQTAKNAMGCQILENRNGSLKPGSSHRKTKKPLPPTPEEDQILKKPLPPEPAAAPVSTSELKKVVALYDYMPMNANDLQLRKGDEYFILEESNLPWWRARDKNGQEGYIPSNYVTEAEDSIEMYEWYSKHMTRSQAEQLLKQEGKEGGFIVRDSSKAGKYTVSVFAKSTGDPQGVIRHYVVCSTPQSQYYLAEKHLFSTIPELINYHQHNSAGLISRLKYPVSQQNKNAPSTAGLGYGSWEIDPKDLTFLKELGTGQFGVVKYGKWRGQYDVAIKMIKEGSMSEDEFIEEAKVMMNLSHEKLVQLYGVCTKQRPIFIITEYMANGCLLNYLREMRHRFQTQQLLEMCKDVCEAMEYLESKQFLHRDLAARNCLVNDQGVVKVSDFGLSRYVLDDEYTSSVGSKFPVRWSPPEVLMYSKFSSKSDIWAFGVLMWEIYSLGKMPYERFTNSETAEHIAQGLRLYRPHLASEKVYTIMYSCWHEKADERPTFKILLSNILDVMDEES
Source text: as §1

SGK (SGK1) = SGK (SGK1) (Homo sapiens (Human), UniProt O00141)
Source text: as §1

[1] = target: MAPK14 (p38 alpha) Direct (Homo sapiens (Human), UniProt Q16539)
Source text: as §1

MAP2K1 (MEK1) = MAP2K1 (MEK1) (Homo sapiens (Human), UniProt Q02750)
Source text: as §1

PTK2B (FAK2) = PTK2B (FAK2) (Homo sapiens (Human), UniProt Q14289)
Source text: as §1

TBK1 = TBK1 (Homo sapiens (Human), UniProt Q9UHD2)
Source text: as §1

NEK2 = NEK2 (Homo sapiens (Human), UniProt P51955)
Sequence of NEK2 (P51955 whole entry): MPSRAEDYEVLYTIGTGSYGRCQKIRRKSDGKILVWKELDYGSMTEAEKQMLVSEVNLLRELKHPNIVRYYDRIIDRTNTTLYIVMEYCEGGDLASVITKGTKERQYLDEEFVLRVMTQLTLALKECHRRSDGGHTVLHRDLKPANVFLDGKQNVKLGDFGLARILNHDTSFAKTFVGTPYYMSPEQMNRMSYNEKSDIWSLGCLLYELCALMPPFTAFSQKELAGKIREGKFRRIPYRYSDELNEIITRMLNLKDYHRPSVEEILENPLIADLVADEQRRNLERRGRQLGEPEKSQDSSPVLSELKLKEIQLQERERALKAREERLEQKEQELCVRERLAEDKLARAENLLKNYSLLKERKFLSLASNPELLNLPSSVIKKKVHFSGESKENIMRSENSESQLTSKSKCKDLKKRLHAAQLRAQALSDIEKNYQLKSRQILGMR
Source text: as §1

TEK (Tie2) = TEK (Tie2) (Homo sapiens (Human), UniProt Q02763)
Source text: as §1

AKT1 (PKB alpha) = AKT1 (PKB alpha) (Homo sapiens (Human), UniProt P31749)
Sequence of AKT1 (PKB alpha) (P31749 whole entry): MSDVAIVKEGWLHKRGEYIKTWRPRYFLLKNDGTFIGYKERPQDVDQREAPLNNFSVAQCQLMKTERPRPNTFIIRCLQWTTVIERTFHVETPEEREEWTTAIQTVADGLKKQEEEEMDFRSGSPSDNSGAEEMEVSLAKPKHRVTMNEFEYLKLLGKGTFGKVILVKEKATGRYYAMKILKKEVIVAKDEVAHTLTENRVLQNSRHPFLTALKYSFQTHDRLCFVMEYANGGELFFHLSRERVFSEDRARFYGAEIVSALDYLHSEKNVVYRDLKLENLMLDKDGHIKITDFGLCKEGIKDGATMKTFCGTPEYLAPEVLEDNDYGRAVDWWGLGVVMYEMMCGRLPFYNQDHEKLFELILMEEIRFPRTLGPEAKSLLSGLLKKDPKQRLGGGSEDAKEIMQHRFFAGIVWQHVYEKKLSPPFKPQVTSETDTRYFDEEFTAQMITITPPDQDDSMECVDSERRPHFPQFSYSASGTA
Source text: as §1

Sequence of RPS6KB1 (p70S6K) (P23443 whole entry): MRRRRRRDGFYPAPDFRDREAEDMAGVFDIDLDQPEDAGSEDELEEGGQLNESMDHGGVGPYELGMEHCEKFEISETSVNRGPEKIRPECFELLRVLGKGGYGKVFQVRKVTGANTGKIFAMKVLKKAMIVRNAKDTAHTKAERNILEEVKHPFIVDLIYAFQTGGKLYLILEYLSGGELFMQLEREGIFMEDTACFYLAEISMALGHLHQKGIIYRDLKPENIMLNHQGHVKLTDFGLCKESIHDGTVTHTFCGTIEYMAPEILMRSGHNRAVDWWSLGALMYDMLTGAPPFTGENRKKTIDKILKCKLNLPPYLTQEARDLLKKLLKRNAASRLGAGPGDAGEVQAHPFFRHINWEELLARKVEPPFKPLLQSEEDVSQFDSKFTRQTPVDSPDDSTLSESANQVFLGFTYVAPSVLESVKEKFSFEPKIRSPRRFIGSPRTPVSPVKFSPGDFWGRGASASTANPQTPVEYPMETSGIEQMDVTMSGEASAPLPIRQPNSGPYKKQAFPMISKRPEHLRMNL

inhibition at 10 µM (RPS6KB1 (p70S6K); read-out: % Inhibition): 80%
inhibition at 10 µM (RPS6KB1 (p70S6K); read-out: % Inhibition class): ≥ 80%
selectivity against a panel of 120 disease relevant kinases (RPS6KB1 (p70S6K); SelectScreen panel): RPS6K1-selective inhibitor
inhibition at 10 µM (AURKB (Aurora B); read-out: % Inhibition): 63%
inhibition at 10 µM (AURKB (Aurora B); read-out: % Inhibition class): 40 to 80%
inhibition at 10 µM (CSF1R (FMS); read-out: % Inhibition): 26%
inhibition at 10 µM (CSF1R (FMS); read-out: % Inhibition class): < 40%
inhibition at 10 µM (NTRK1 (TRKA); read-out: % Inhibition): 5%
inhibition at 10 µM (NTRK1 (TRKA); read-out: % Inhibition class): < 40%
inhibition at 10 µM (SRC; read-out: % Inhibition): 9%
inhibition at 10 µM (SRC; read-out: % Inhibition class): < 40%
inhibition at 10 µM (TYRO3 (RSE); read-out: % Inhibition): 25%
inhibition at 10 µM (TYRO3 (RSE); read-out: % Inhibition class): < 40%
inhibition at 10 µM (JAK1; read-out: % Inhibition): 9%
inhibition at 10 µM (JAK1; read-out: % Inhibition class): < 40%
inhibition at 10 µM (CHEK2 (CHK2); read-out: % Inhibition): 38%
inhibition at 10 µM (CHEK2 (CHK2); read-out: % Inhibition class): < 40%
inhibition at 10 µM (ERBB2 (HER2); read-out: % Inhibition): 6%
inhibition at 10 µM (ERBB2 (HER2); read-out: % Inhibition class): < 40%
inhibition at 10 µM (FER; read-out: % Inhibition): 23%
inhibition at 10 µM (FER; read-out: % Inhibition class): < 40%
inhibition at 10 µM (CSNK1E (CK1 epsilon); read-out: % Inhibition): 33%
inhibition at 10 µM (CSNK1E (CK1 epsilon); read-out: % Inhibition class): < 40%
inhibition at 10 µM (PLK3; read-out: % Inhibition): 77%
inhibition at 10 µM (PLK3; read-out: % Inhibition class): 40 to 80%
inhibition at 10 µM (MATK (HYL); read-out: % Inhibition): -5%
inhibition at 10 µM (MATK (HYL); read-out: % Inhibition class): < 40%
inhibition at 10 µM (KIT; read-out: % Inhibition): 7%
inhibition at 10 µM (KIT; read-out: % Inhibition class): < 40%
inhibition at 10 µM (FES (FPS); read-out: % Inhibition): 36%
inhibition at 10 µM (FES (FPS); read-out: % Inhibition class): < 40%
inhibition at 10 µM (PLK1; read-out: % Inhibition): 9%
inhibition at 10 µM (PLK1; read-out: % Inhibition class): < 40%
inhibition at 10 µM (RAF1 (cRAF) Y340D Y341D; read-out: % Inhibition): 6%
inhibition at 10 µM (RAF1 (cRAF) Y340D Y341D; read-out: % Inhibition class): < 40%
inhibition at 10 µM (JAK3; read-out: % Inhibition): 28%
inhibition at 10 µM (JAK3; read-out: % Inhibition class): < 40%
inhibition at 10 µM (ERBB4 (HER4); read-out: % Inhibition): 25%
inhibition at 10 µM (ERBB4 (HER4); read-out: % Inhibition class): < 40%
inhibition at 10 µM (BTK; read-out: % Inhibition): 43%
inhibition at 10 µM (BTK; read-out: % Inhibition class): 40 to 80%
inhibition at 10 µM (SGK (SGK1); read-out: % Inhibition): 50%
inhibition at 10 µM (SGK (SGK1); read-out: % Inhibition class): 40 to 80%
inhibition at 10 µM ([1]; read-out: % Inhibition): 2%
inhibition at 10 µM ([1]; read-out: % Inhibition class): < 40%
inhibition at 10 µM (MAP2K1 (MEK1); read-out: % Inhibition): 13%
inhibition at 10 µM (MAP2K1 (MEK1); read-out: % Inhibition class): < 40%
inhibition at 10 µM (PTK2B (FAK2); read-out: % Inhibition): 18%
inhibition at 10 µM (PTK2B (FAK2); read-out: % Inhibition class): < 40%
inhibition at 10 µM (TBK1; read-out: % Inhibition): 18%
inhibition at 10 µM (TBK1; read-out: % Inhibition class): < 40%
inhibition at 10 µM (NEK2; read-out: % Inhibition): -20%
inhibition at 10 µM (NEK2; read-out: % Inhibition class): < 40%
inhibition at 10 µM (TEK (Tie2); read-out: % Inhibition): 20%
inhibition at 10 µM (TEK (Tie2); read-out: % Inhibition class): < 40%
inhibition at 10 µM (AKT1 (PKB alpha); read-out: % Inhibition): 11%
inhibition at 10 µM (AKT1 (PKB alpha); read-out: % Inhibition class): < 40%
Structure (SMILES): Nc1cc(N)c2c(c1)C(=O)NC2=O [RJ1, 4,6-diaminoisoindoline-1,3-dione]
